Data on twelve molecules can be found in patent US5283243A, “Piperidinoalkylbenzoxazine and piperidinoalkylbenzothiazine compounds, and medicaments containing them” (Kali-Chemie Pharma GmbH, priority 1990, dated 1994).

Data set [1] relates to Histamine-induced anaphylactoid reaction. Briefly: Inhibition of histamine-induced anaphylactoid cutaneous reaction. The class given is in vivo, Sprague-Dawley rats. To be noted: Rattus norvegicus, 1 h, read-out: % inhibition of Histamine-induced anaphylactoid reaction. Here is the method:
(§1) 1. Determining Inhibition of Passive Cutaneous Anaphylaxis (PCA) and Histamine-Induced Anaphylactoid Cutaneous Reaction
(§2) The inhibition of the passive cutaneous anaphylaxis and of the anaphylactoid cutaneous reaction induced by histamine was determined as follows:
To determine the histamine-induced anaphylactoid skin reaction, the animals are injected intradermally in the flank opposite to the antiserum administration with 50 μl of a physiological saline solution containing 0.8 mg/ml histamine directly before the intravenous injection of the solution containing the ovalbumin and the blue dye.
(§3) On the day of the experiment the test substances were dissolved in distilled water which contained 1 vol. % dimethylformamide and 1 vol. % of Tween™ 20 (=polyoxyethylene (20) sorbitan monolaurate). One hour before administration of the ovalbumin challenge, each animal was orally administered 2×10^-5 mole/kg of test substance in 0.5 ml of solution. For comparison purposes a control group received only the solvent.
(§4) The edematous anaphylactic (PCA) and anaphylactoid (histamine-induced) reactions caused by the stimulation of the intravenous ovalbumin injection, which manifested themselves by edema formation, swelling and exudation of blue dye, were evaluated 30 minutes after their initiation by the intravenous ovalbumin injection. This was done by visually determining the extent to which the blue dye emerged at the sites of edema formation. The percentage inhibition of anaphylactic and anaphylactoid reactions induced by the test substances in comparison with the reactions of the control animals not treated with any test substance was determined using comparison scales.
(§5) The results obtained using compounds of formula I according to the foregoing test methods are shown in the following Table A. The example numbers given for the compounds of formula I relate to the subsequent preparative examples.

Data set [2] relates to Passive cutaneous anaphylaxis (PCA). As to the kind of experiment: Inhibition of passive cutaneous anaphylaxis (PCA). Format: in vivo, Sprague-Dawley rats. To be noted: Rattus norvegicus, 1 h, read-out: % inhibition of Passive cutaneous anaphylaxis (PCA). Here is the method:
as §1
The PCA reaction is carried out following the methods described by Goose et al. (J.N. Immunology 16 (1969), 749) and by Martin et al. (Arch. Pharmacol. 316 (1981), 186).
The IgE-rich ovalbumin antiserum used in the test was obtained from immunized Brown-Norway rats. The were immunized with an intraperitoneal injection of a mixture of 100 μg of ovalbumin with a Bordetella pertussis suspension (Vaxicoq™, Manufactured by Institute Merieux, containing 5×10^9 organisms and 1.25 mg Al(OH)3). After 20 days the animals were re-immunized with a further intraperitoneal injection of a solution of 10 μg ovalbumin in 0.5 ml physiological saline solution. After a further four days the blood was removed from the animals and centrifuged. The resulting antiserum was stored at -20° C. until use.
as §2
Sprague-Dawley rats having a body weight of 150-180 g were injected intradermally in one flank with 50 μl of a 1:75 dilution of the IgE-rich ovalbumin antiserum in physiological saline solution to passively sensitize them to ovalbumin.
24 hours after sensitization a solution of 8.25 mg/kg of ovalbumin and 26.4 mg/kg of a blue dye (Evans's Blue) was administered to the rats intravenously according to Martin et al. to trigger passive cutaneous anaphylaxis.
as §3, §4, §5

Data set [3] has as its system 5-lipoxygenase (LTC4 release). Briefly: 5-Lipoxygenase inhibition: LTC4 release from zymosan-stimulated mouse peritoneal macrophage cells. The following applies: Peritoneal macrophage cell; zymosan-stimulated mouse peritoneal macrophage cells, 10^-5 mole/l; read-out: In vitro % inhibition upon release of LTC4. The class given is cell-based. An excerpt: (§6) 5. In vitro Determination of Cyclooxygenase Inhibition and 5-Lipoxygenase Inhibition
(§7) After a cell is activated, arachidonic acid contained in cell membranes is metabolized in two ways. Leucotrienes, inter alia leucotriene C4, are formed due to the action of the enzyme 5-lipoxyqenase (=5-LO), and prostanoids are formed due to the action of the enzyme cyclooxygenase (=CO). In in vitro systems these metabolites are secreted from the cell.
(§8) To evaluate the cyclooxygenase-inhibiting and 5-lipoxygenase-inhibiting properties of the test substances, their inhibitory activity on the biosynthesis of the arachidonic acid derivatives leucotriene C4 (=LTC4) and 6-keto-prostaglandin F1α (=6-keto-PGF1 α) was determined in vitro on mouse peritoneal macrophage cells. For this purpose the LTC4 and 6-keto-PGF1 α contents of a mouse peritoneal macrophage cell culture medium were determined by zymosan stimulation as described by Scott et al. (J. Exp. Med. 152 (1980), 324-335) and by Fradin et al., (Prostaglandins, 33 (1987), 579-589).
(§9) A cell suspension containing peritoneal cells from male mice 8-10 weeks old was obtained in a known manner. A solution marketed under the designation RPMI 1640 (Manufactured by Gibco) was used as the cell culture medium, to which heparin (10 international units/ml) and antibiotics were added according to the procedure of Bonney et al. (Biochem. J. 176 (1978) 422-433). The cell suspension was adjusted to a cell concentration of 10^6 cells per ml and distributed uniformly on titer dishes containing 24 1-ml titer cells (wells). These were kept for two hours in a humidified incubator filled with air enriched with 7% CO2. Cells not adhering to the titer well walls were then removed by washing. The remaining macrophage cells adhering to the walls were incubated for about 12 hours in a suspension medium to which 0.1% of bovine serum albumin (BSA=Bovine Serum Albumin) was added. The suspension medium was then replaced by a Hanks salt solution (=Hanks Balanced Salt Solution=HBSS) with 10 mmoles of Hepes (=hydroxyethylpiperazinoethanesulfonic acid) to which a 0.1% strength solution of the test substances in aqueous, 1% strength dimethylformamide or only the solvent had been added. After 15 minutes the arachidonic acid metabolism was stimulated by adding […] of zymosan (=glycoprotein mixture isolated from cell walls of beer yeast, Saccharomyces cerevisiae, Manufactured by Sigma Chemical Co., Munich) per titre cell. After 2 hours samples of the respective supernatant liquid in each cell were examined for their 6-keto-PGF1α and LTC4 contents by an enzyme immunoassay (=EIA). This EIA is carried out following the method of Pradelles et al. (Analytical Chem. 57 (1985), 1170-1173). The determination of LTC4 and the determination of 6-keto-PGF1α were each carried out on suitable dilutions of the samples (1:50 to 1:250 for the LTC4 determination and 1:250 to 1:1,250 for the 6-keto-PGF1α determination) in comparison with a comparative scale. To determine the inhibiting effect of a 10^-5 molar concentration of the compounds, the amounts of reference eicosanoid were determined, and the inhibiting effect was calculated therefrom in % inhibition compared to the measurements of the zymosan controls.

In data set [4] the test system is cyclooxygenase (6-keto-PGF1α release). As to the kind of experiment: Cyclooxygenase inhibition: 6-keto-PGF1α release from zymosan-stimulated mouse peritoneal macrophage cells. The class given is cell-based. To be noted: Peritoneal macrophage cell; zymosan-stimulated mouse peritoneal macrophage cells, 10^-5 mole/l; read-out: In vitro % inhibition upon release of 6-keto-PGF1α.
Text: as §6, §7, §8, §9

For another data set, the system named is mice. Briefly: Determination of minimum toxic dose. Format: in vivo. The following applies: mouse, per os; lowest dose producing death or severe toxic symptoms, maximum dose 300 mg/kg, 24 hours. Here is the method: 2. Determination of Minimum Toxic Dose
Maximum doses of 300 mg/kg of the test substance were administered orally to male mice weighing 20-25 g. The animals were observed carefully for 3 hours for toxicity symptoms. In addition, all symptoms and deaths were recorded over a period of 24 hours after administration. Associated symptoms were also observed and recorded. If death or severe toxic symptoms were observed, additional mice were administered increasingly lower doses. The lowest dose which produced death or severe toxic symptoms is given in the following Table B as the minimum toxic dose.

The next data set concerns the target T1, histamine-(H1)-receptor (Cavia porcellus, UniProt P31389).
T1 construct: Segments of the ileum 1.5 cm long from Dunkin Hartley guinea pigs; from tissue; host or cells: isolated ileum segments of Dunkin Hartley guinea pigs
Briefly: Anti-histamine-(H1) effect, inhibition of histamine-induced contraction of isolated guinea pig ileum in vitro. The following applies: histamine 5 × 10^-6 mole/l, test substance 10^-6 mole/l. Format: cell-based, Dunkin Hartley guinea pigs. Here is the method:
3. Investigation of Anti-Histamine-(H1) Effect Based on Histamine-(H1)-Receptor Antagonism In Vitro
To investigate the histamine-(H1)-receptor antagonism of the test substances, the inhibiting effect of the substances on histamine-induced contractions of the smooth muscle was determined in vitro on the isolated organ. Isolated strips of organ from the ileum are suitable for this purpose. In an organ bath of physiological saline solution the smooth muscle strips react to the addition of histamine by contracting. […] The extent of regression of the contraction is an indication of the anti-histamine-(H1) activity of the compounds. The investigation was carried out analogously to the method originally described by Magnus (Pfluegers Arch. 102, 123 (1904)). Procedure for determining the smooth muscle contraction inhibiting effect on isolated guinea pig ileum induced by a 5×10^-6 molar histamine concentration.
Segments of the ileum 1.5 cm long from Dunkin Hartley guinea pigs having a body weight of 300 500 g were used for the test. Each strip was placed in an organ bath of 10 ml of physiological saline solution according to Krebs-Henseleit and attached to a conventional apparatus for isotonic measurement of changes in length of the ileum strips (automated Celaster measuring apparatus), so that the tissue was under 1 g of tension. The bath was kept at a pH of 7.4 and gassed with a mixture of 5% CO2 and 95% 02. After an equilibration phase, an isotonic contraction of the tissue was induced by adding histamine in a final concentration of 5×10^-6 mole/liter and washing it out again after a contact time of 30 seconds. Only tissues samples from which three reproducible contractions were obtained at 10 minute intervals were used in the subsequent test. The test substances were then added in a final concentration of 10^-6 mole/liter, and after 30 seconds contact time histamine was again added up to a concentration of 5×10^-6 mole/liter. The resulting contractions were measured over 30 seconds. The tissue was then washed several times over a period of 10 minutes. Histamine was then added again to stimulate a contraction. The resulting contractions were again measured over 30 seconds. The difference between the amplitude of the contraction obtained by histamine addition alone and the amplitude of the contraction obtained in the presence of the test substance was determined and expressed in terms of % inhibition.
The inhibiting effects on the contractions induced by histamine 30 seconds after administration of the test substance and on the contractions induced by the addition of histamine 10 minutes later are listed in the table.

Where [5] appears, read: rats, 2 × 10^-5 mole/kg dose per os, one hour before challenge.
Setting [6] is: rats, 2 × 10^-5 mole/kg dose per os, one hour before ovalbumin challenge.

Read-outs that look alike come from different tables or passages of the source.

T1 sequence (P31389 whole entry): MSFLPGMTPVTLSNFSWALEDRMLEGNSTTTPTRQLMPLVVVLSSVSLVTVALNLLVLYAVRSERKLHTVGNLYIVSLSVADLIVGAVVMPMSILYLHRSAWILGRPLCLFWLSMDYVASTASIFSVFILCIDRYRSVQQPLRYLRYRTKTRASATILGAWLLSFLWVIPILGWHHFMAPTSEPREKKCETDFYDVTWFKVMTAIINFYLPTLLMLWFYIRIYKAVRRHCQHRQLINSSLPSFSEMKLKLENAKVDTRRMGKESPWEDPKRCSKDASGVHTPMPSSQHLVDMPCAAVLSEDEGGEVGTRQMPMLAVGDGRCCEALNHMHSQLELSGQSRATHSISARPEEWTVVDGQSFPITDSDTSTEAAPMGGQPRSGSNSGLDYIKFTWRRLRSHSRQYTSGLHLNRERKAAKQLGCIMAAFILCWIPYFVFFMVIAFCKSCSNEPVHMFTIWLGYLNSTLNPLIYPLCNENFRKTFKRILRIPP

As for `O=C1Nc2ccccc2SC1CCCCN1CCC(O)(c2ccccc2)CC1` (stereo not drawn) [Example 11], the values for the inhibition in vivo at 20 µmol/kg in data set [1] (setting [5]) and in data set [2] (setting [6]) were 20% and 45%, respectively.

By inhibition is commonly meant the relative decrease from the control value, in per cent. With `O=C(c1ccc(F)cc1)C1CCN(C2Sc3ccccc3NC2=O)CC1` (stereo not drawn) [Example 4, 2-[4-(4-fluorobenzoyl)-piperidin-1-yl]-2H-1,4-benzothiazine-3(4H)-one], the inhibition at 10 µM was 0% in data set [3] and 71% in data set [4]. Moreover, the Minimum toxic dose in the data set with mice is given as 300 mg/kg.

As for `O=C1Nc2ccccc2OC1CCCCN1CC=C(c2ccccc2)CC1` (stereo not drawn) [Example 12], the inhibition in vivo at 20 µmol/kg in data set [1] (setting [5]) stood at 20%; in data set [2] (setting [6]), 35%.

On to `O=C1Nc2ccccc2SC1CCCCN1CC=C(c2ccccc2)CC1` (stereo not drawn) [Example 10, 2-[4-(4-phenyl-1,2,3,6-tetrahydropyridin-1-yl)-butyl]-2H-1,4-benzothiazine-3(4H)one], for which the inhibition at 10 µM in data set [3] amounted to 37%; in data set [4], 30%. Besides, the inhibition in vivo at 20 µmol/kg in data set [1] (setting [5]) turned out to be 30%; in data set [2] (setting [6]), 55%. This molecule showed a Minimum toxic dose with mice of 300 mg/kg.

Take `O=C1Nc2ccc(Cl)cc2SC1CCCCN1CCC(Nc2nc3ccccc3n2Cc2ccc(F)cc2)CC1` (stereo not drawn) [Example 20]: the inhibition in vivo at 20 µmol/kg in data set [1] (setting [5]) is 40%; in data set [2] (setting [6]), 20%.

For the molecule `O=C1Nc2ccccc2SC1N1CCC(Cc2ccccc2)CC1` (stereo not drawn) [Example 16], the inhibition at 10 µM in data set [3] was 97%; in data set [4], 70%. Also, in the data set on mice, the Minimum toxic dose is > 300 mg/kg.

`O=C1Nc2ccccc2OC1CCCN1CCC(Cc2ccccc2)CC1` (stereo not drawn) [Example 2, 2-[3-(4-benzylpiperidin-1-yl)-propyl]-2H-1,4-benzoxazine-3(4H)-one]: the results for the inhibition at 10 µM in data set [3] and in data set [4] were 54% and 13%, respectively.

For `O=C1Nc2ccccc2SC1CCCCN1CCC(Nc2nc3ccccc3n2Cc2ccc(F)cc2)CC1` (stereo not drawn) [Example 1, 2-{4-[4-(N-(1-(4-fluorophenylmethyl)-1H-benzimidazol-2-yl)-amino)-piperidin-1-yl]-butyl}-2H-1,4-benzothiazine-3(4H)-one], the inhibition at 10 µM in data set [3] was determined as 87%; in data set [4] it was 52%. Further, the inhibition in vivo at 20 µmol/kg in data set [1] (setting [5]) and in data set [2] (setting [6]) was 85% throughout.

For the molecule `O=C1Nc2ccccc2OC1CCCCN1CCC(O)(c2ccccc2)CC1` (stereo not drawn) [Example 13], at histamine-(H1)-receptor (after 30 seconds), the “in vitro (H1)-receptor antagonism, % inhibition of histamine-induced ileum contractions after 30 seconds” value stood at 49%. Further, the “in vitro (H1)-receptor antagonism, % inhibition of histamine-induced ileum contractions after 10 minutes” value on histamine-(H1)-receptor (after 10 minutes) is recorded as 8%.

Take `COc1ccc2c(c1)SC(CCCCN1CCC(C(=O)c3ccc(F)cc3)CC1)C(=O)N2` (stereo not drawn) [Example 18, 7-methoxy-2-(4-[4-(4-fluorobenzoyl)-piperidin-1-yl]-butyl)-2H-1,4benzothiazine-3(4H)-one]: the inhibition in vivo at 20 µmol/kg was 50% in data set [1] (setting [5]) and 90% in data set [2] (setting [6]).

`S=C1Nc2ccccc2OC1CCCN1CCC(Cc2ccccc2)CC1` (stereo not drawn) [Example 3, 2-[3-(4-benzylpiperidin-1-yl)-propyl]-2H-1,4-benzoxazine-3(4H)-thione]: the inhibition at 10 µM in data set [3] is 16%; in data set [4], 17%. The molecule further had a Minimum toxic dose in the data set on mice of 300 mg/kg.

As for `N#CC1(c2ccccc2)CCN(CCCCC2Sc3ccccc3NC2=O)CC1` (stereo not drawn) [Example 15], the inhibition in vivo at 20 µmol/kg in data set [1] is 10%; in data set [2] it was 30%. Also, in the data set with mice, the Minimum toxic dose was 300 mg/kg.
